We go through twelve molecules from paper PMC11032351, “Epigenetic modulation through BET bromodomain inhibitors as a novel therapeutic strategy for progranulin-deficient frontotemporal dementia” (Scientific Reports, 2024).

Type in all cases: binding
Test [1] addresses T1, Recombinant BRD4(BD2) (Homo sapiens, UniProt O60885).
T1 construct: using the recombinant, individually purified bromodomains of BRD4 (GST-tagged BD1 and BD2); purchased Epicypher, Inc 15–0013
As to the kind of experiment: TR-FRET ligand displacement, recombinant GST-BRD4(BD2). Particulars: GST-tagged, with 95% confidence interval. The procedure:
(§1) Unless otherwise noted, experiments were performed in white, 384-well microtiter plates (Corning 3572 or PerkinElmer ProxiPlate-384 Plus) in 30 μL or 10 μL assay volume, respectively. TR-FRET measurements were acquired on a Tecan SPARK plate reader with SPARKCONTROL software version V2.1 (Tecan Group Ltd.), with the following settings: 340/50 nm excitation, 490/10 nm (Tb), 520/10 nm (FITC) emission, 100 μs delay, and 400 μs integration. The 490/10 and 520/10 nm emission channels were acquired with a 50% mirror and a dichroic 510 mirror, respectively, using independently optimized detector gain settings unless specified otherwise. The TR-FRET ratio was taken as the 520/490 nm intensity ratio on a per-well basis.
(§2) Assays were performed as described. Recombinant BRD4(BD1) and BRD4(BD2) were purchased from BPS Biosciences, Inc and Epicypher, Inc (GST-BRD4(BD1), 31,040; GST-BRD4(BD2), 15–0013, respectively). Recombinant bromodomains were diluted to 0.5 nM in assay buffer (25 mM HEPES, 150 mM NaCl, 0.5 mg/mL BSA, 0.005% TWEEN-20, pH 7.5) with 2 nM CoraFluor-1-labeled GST VHH (ChromoTek ST-250), then JQ1-FITC was added in serial dilution (cmax = 100 nM) using an HP D300 digital dispenser and allowed to equilibrate for 2 h at room temperature before TR-FRET measurements were taken. Nonspecific signal was determined with 50 μM JQ1-Acid, and data were fitted to a One Site–Specific Binding model in Prism 9. The KD determined from the one-site model was then used in Eq. 1 to adjust for a two-site model due to the dimeric GST protein:1 KD,2-site=KD,1-site×(1+2)
(§3) The following assay parameters have been used: (i) 4 nM GST-BRD4(BD1), 4 nM CoraFluor-labeled GST VHH, 20 nM JQ1-FITC in assay buffer, (ii) 4 nM GST-BRD4(BD2), 4 nM CoraFluor-labeled GST VHH, 20 nM JQ1-FITC in assay buffer, (iii) HEK293T or NPC cell lysate at 0.8 mg/mL total protein, 1 nM rabbit anti-BRD4 antibody, 2 nM CoraFluor-labeled anti-rabbit Nano-Secondary, 20 nM JQ1-FITC. For all experiments, test compounds were added in serial dilution (cmax = 10 μM) using an HP D300 digital dispenser and allowed to equilibrate for 2 h at room temperature before TR-FRET measurements were taken. The assay floor (background) was defined with the 10 μM mivebresib dose, and the assay ceiling (top) was defined via a no-inhibitor control. Data were fitted to a four-parameter dose–response model in Prism 9.
(§4) For TR-FRET ligand displacement assays with recombinant bromodomains, we have determined the KD of the respective fluorescent tracer (JQ1-FITC) under each assay condition. For endogenous BRD4 in whole cell extract, we have determined the KD,app of JQ1-FITC under each assay condition. Inhibitor KD and KD,app values have been calculated using Cheng-Prusoff principles, outlined in Eq. 2 below:2 KDorKD,app=IC50/1+[S]/KX where IC50 is the measured IC50 value, [S] is the concentration of fluorescent tracer, and KX is the KD or KD,app of the fluorescent tracer for a given condition.
On the technique in general: Time-resolved FRET reads energy transfer from a long-lived donor to a nearby acceptor.

For test [2], the target named is T2, Recombinant BRD4(BD1) (Homo sapiens, UniProt O60885).
T2 construct: using the recombinant, individually purified bromodomains of BRD4 (GST-tagged BD1 and BD2); purchased BPS Biosciences, Inc 31,040
In words: TR-FRET ligand displacement, recombinant GST-BRD4(BD1). Particulars: for Kd: GST-tagged, with 95% confidence interval. As for the experimental part:
as §1, §2, §3, §4

For test [3], the target named is T3, Endogenous BRD4 (HEK293T) (Homo sapiens, UniProt O60885).
T3 construct: target engagement toward endogenous BRD4 derived from cellular lysates of cell types of interest; endogenous in cells; host or cells: HEK293T
As to the kind of experiment: CoraFluor TR-FRET ligand displacement, endogenous BRD4 in HEK293T lysate. Particulars: with 95% confidence interval, read-out: Endogenous BRD4 (HEK293T), KD,app. As for the experimental part: A cell pellet from one 15 cm dish (~ 25 M cells) of HEK293T cells, or from one confluent T-75 flask 8330-8 NPC cells (~ 9 M cells), was allowed to thaw on ice and cells were suspended in 400 μL lysis buffer (25 mM HEPES, 150 mM NaCl, 0.2% (v/v) Triton X-100, 0.02% (v/v) TWEEN-20, pH 7.5 supplemented with 2 mM DTT and one Roche cOmplete, Mini, EDTA-free protease inhibitor cocktail tablet (Sigma 11,836,170,001) per 7 mL. Cells were homogenized via passage through a 27.5-gauge needle 5 times, and the resulting mixture was incubated with slow, end-over-end mixing at 4 °C for 15 min. The lysate was clarified via centrifugation at 16,100 × g for 10 min at 4 °C then 800 μL (1:3 dilution) dilution buffer (25 mM HEPES, 150 mM NaCl, 0.005% (v/v) TWEEN-20, pH 7.5) was added and the lysate was re-clarified at 16,100 × g for 10 min at 4 °C. Total protein was quantified via detergent-compatible Bradford assay (ThermoFisher 23,246). The lysate was used fresh or flash-frozen in liquid nitrogen and stored at − 80 °C in single-use aliquots.
as §1
For the profiling of endogenous BRD4, cell lysates as prepared above were diluted to 0.8 mg/mL total protein in 1:3 lysis buffer:dilution buffer with 0.5 nM rabbit anti-BRD4 antibody (Cell Signaling Technology; E2A7X) and 1 nM CoraFluor-1-labeled anti-rabbit Nano-Secondary (ChromoTek CTK0101). JQ1-FITC was added in serial dilution (cmax = 200 nM) using an HP D300 digital dispenser and allowed to equilibrate for 2 h at room temperature before TR-FRET measurements were taken. Nonspecific signal was determined with 50 μM JQ1-Acid, and data were fitted to a One Site–Specific Binding model in Prism 9. The KD,app determined from the one-site model was then adjusted for a two-site model using Eq. 1.
as §3, §4

Regarding `Cn1ccc2c(-c3cccnc3Oc3cc(F)cc(F)c3)c[nH]c2c1=O` [Compound 82B, 3-(2-(3,5-difluorophenoxy)pyridin-3-yl)-6-methyl-1,6-dihydro-7H-pyrrolo[2,3-c]pyridin-7-one], the values for the Kd in test [1], in test [2] and in test [3] were 332 nM, 147 nM and 519 nM, respectively.
On to `Cn1cc(-c2cccnc2Oc2ccc(F)cc2)c2cc[nH]c2c1=O` [Compound 18A, 4-(2-(4-fluorophenoxy)pyridin-3-yl)-6-methyl-1H-pyrrolo[2,3-c]pyridin-7(6H)-one], for which the results for the Kd in test [1], in test [2] and in test [3] were 24 nM, 28 nM and 44 nM, respectively.
Turning to `Cn1cc(-c2cccnc2Nc2ccc(F)cc2)c2cc[nH]c2c1=O` [Compound 85A, 4-(2-((4-fluorophenyl)amino)pyridin-3-yl)-6-methyl-1,6-dihydro-7H-pyrrolo[2,3-c]pyridin-7-one], the Kd in test [1] is 421 nM; in test [2], 76 nM; in test [3], 93 nM. Further, the “selectivity for BD1 over BD2” value in test [2] (recombinant BRD4 BD1 vs BD2) was ~ 5.5 fold.
Consider `Cn1cc(-c2cccnc2Oc2cc(F)cc(F)c2)c2cc[nH]c2c1=O` [Compound 82A, 4-(2-(3,5-difluorophenoxy)pyridin-3-yl)-6-methyl-1,6-dihydro-7H-pyrrolo[2,3-c]pyridin-7-one], for which the Kd in test [1] was determined as 30 nM; in test [2], 41 nM; in test [3], 49 nM.
For `Cn1ccc2c(-c3cccnc3Nc3ccc(F)cc3)c[nH]c2c1=O` [Compound 85B, 3-(2-((4-fluorophenyl)amino)pyridin-3-yl)-6-methyl-1,6-dihydro-7H-pyrrolo[2,3-c]pyridin-7-one], in that order: 2740 nM, 951 nM and 3910 nM.
For `Cn1cc(-c2cc(F)cnc2Oc2ccc(F)cc2)c2cc[nH]c2c1=O` [Compound 86A, 4-(5-fluoro-2-(4-fluorophenoxy)pyridin-3-yl)-6-methyl-1,6-dihydro-7H-pyrrolo[2,3-c]pyridin-7-one], the Kd in test [1] was determined as 324 nM; in test [2], 168 nM; in test [3] it was 559 nM.
For `Cn1ccc2c(-c3cccnc3Oc3ccc(F)cc3)c[nH]c2c1=O` [Compound 18B, 3-[2-(4-fluorophenoxy)pyridin-3-yl]-6-methyl-1,6-dihydro-7H-pyrrolo[2,3-c]pyridin-7-one], in that order: 158 nM, 46 nM and 121 nM.
For `Cn1ccc2c(-c3cccnc3Sc3ccc(F)cc3)c[nH]c2c1=O` [Compound 84B, 3-(2-((4-fluorophenyl)thio)pyridin-3-yl)-6-methyl-1,6-dihydro-7H-pyrrolo[2,3-c]pyridin-7-one], the Kd stood at 133 nM in test [1], 43 nM in test [2] and 196 nM in test [3].
With `Cn1cc(-c2cccnc2Oc2ccc(F)c(F)c2)c2cc[nH]c2c1=O` [Compound 81A, 4-(2-(3,4-difluorophenoxy)pyridin-3-yl)-6-methyl-1,6-dihydro-7H-pyrrolo[2,3-c]pyridin-7-one], the Kd in test [1] is 34 nM; in test [2], 29 nM; in test [3], 30 nM.
`Cn1cc(-c2cccnc2Sc2ccc(F)cc2)c2cc[nH]c2c1=O` [Compound 84A, 4-(2-((4-fluorophenyl)thio)pyridin-3-yl)-6-methyl-1,6-dihydro-7H-pyrrolo[2,3-c]pyridin-7-one]: the Kd in test [1] came out at 199 nM; in test [2] it was 303 nM; in test [3], 370 nM.
Turning to `Cn1ccc2c(-c3cc(F)cnc3Oc3ccc(F)cc3)c[nH]c2c1=O` [Compound 86B, 3-(5-fluoro-2-(4-fluorophenoxy)pyridin-3-yl)-6-methyl-1,6-dihydro-7H-pyrrolo[2,3-c]pyridin-7-one], the values for the Kd in test [1], in test [2] and in test [3] were 3710 nM, 2640 nM and 7150 nM, respectively.
For `Cn1ccc2c(-c3cccnc3Oc3ccc(F)c(F)c3)c[nH]c2c1=O` [Compound 81B, 3-(2-(3,4-difluorophenoxy)pyridin-3-yl)-6-methyl-1,6-dihydro-7H-pyrrolo[2,3-c]pyridin-7-one], in that order: 375 nM, 126 nM and 538 nM.
